Measurements published in the supplement of paper PMC10307832.

What was measured:
Assay in all cases: relative viability (nuclei count vs DMSO), 5 days (fraction); higher = more cells survive
XMD8-85 + Foretinib = compound: CN1CCN(CC1)C2=CC(=C(C=C2)NC3=NC=C4C(=N3)N(C5=CC=CC=C5C(=O)N4C)C)OC [XMD8-85] + COc1cc2c(Oc3ccc(NC(=O)C4(C(=O)Nc5ccc(F)cc5)CC4)cc3F)ccnc2cc1OCCCN1CCOCC1 [Foretinib] (partner 0.25 µM)
Summary of the method: (§1)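 Lung cancer cell lines were pin-tool dosed in 1536-well plates on the day after seeding, with either a lone drug or a fixed anchor-drug dose plus five library-drug doses (not always all listed) in √10 steps. Nuclei were counted on 4× images after 5 days. Relative viability is the ratio of treated-well to vehicle-well nuclei counts, with each value a median of duplicate plates.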

XMD8-85 + Crizotinib = compound: CN1CCN(CC1)C2=CC(=C(C=C2)NC3=NC=C4C(=N3)N(C5=CC=CC=C5C(=O)N4C)C)OC [XMD8-85] + C[C@@H](Oc1cc(-c2cnn(C3CCNCC3)c2)cnc1N)c1c(Cl)ccc(F)c1Cl [Crizotinib] (partner 1 µM)
Summary of the method: as §1

XMD8-85 + Linsitinib = compound: CN1CCN(CC1)C2=CC(=C(C=C2)NC3=NC=C4C(=N3)N(C5=CC=CC=C5C(=O)N4C)C)OC [XMD8-85] + C[C@]1(O)C[C@@H](c2nc(-c3ccc4ccc(-c5ccccc5)nc4c3)c3c(N)nccn32)C1 [Linsitinib] (partner 1 µM)
Summary of the method: as §1

4EGI-1 + Pictilisib = compound: O=C(O)C(Cc1ccccc1[N+](=O)[O-])=NNc1nc(-c2ccc(Cl)c(Cl)c2)cs1 (mixture of isomers) [4EGI-1] + CS(=O)(=O)N1CCN(Cc2cc3nc(-c4cccc5[nH]ncc45)nc(N4CCOCC4)c3s2)CC1 [Pictilisib] (partner 1 µM)
Summary of the method: as §1

Cell Line	relative viability (XMD8-85 + Foretinib; first compound 0.08 µM)	relative viability (XMD8-85 + Foretinib; first compound 0.253 µM)	relative viability (XMD8-85 + Foretinib; first compound 0.8 µM)	relative viability (XMD8-85 + Foretinib; first compound 2.53 µM)	relative viability (XMD8-85 + Foretinib; first compound 8 µM)	relative viability (XMD8-85 + Crizotinib; first compound 0.08 µM)	relative viability (XMD8-85 + Crizotinib; first compound 0.253 µM)	relative viability (XMD8-85 + Crizotinib; first compound 0.8 µM)	relative viability (XMD8-85 + Crizotinib; first compound 2.53 µM)	relative viability (XMD8-85 + Crizotinib; first compound 8 µM)	relative viability (XMD8-85 + Linsitinib; first compound 0.08 µM)	relative viability (XMD8-85 + Linsitinib; first compound 0.253 µM)	relative viability (XMD8-85 + Linsitinib; first compound 0.8 µM)	relative viability (XMD8-85 + Linsitinib; first compound 2.53 µM)	relative viability (XMD8-85 + Linsitinib; first compound 8 µM)	relative viability (4EGI-1 + Pictilisib; first compound 0.5 µM)	relative viability (4EGI-1 + Pictilisib; first compound 1.581 µM)	relative viability (4EGI-1 + Pictilisib; first compound 5 µM)	relative viability (4EGI-1 + Pictilisib; first compound 15.81 µM)	relative viability (4EGI-1 + Pictilisib; first compound 50 µM)
HCC-15	1.05	1.01	0.963	1.05	0.766	0.852	0.859	0.855	0.806	0.592	0.867	0.849	0.843	0.866	0.661	0.921	0.705	0.755	0.728	0.574
HCC-44	–	–	–	–	–	0.795	0.769	0.821	0.802	0.301	0.714	0.749	0.642	0.499	0.346	0.75	0.515	0.653	0.527	0.299
HCC-78	0.539	0.572	0.519	0.537	0.531	0.363	0.364	0.304	0.37	0.295	0.594	0.532	0.445	0.443	0.382	0.206	0.257	0.153	0.191	0.234
HCC-366	0.991	1.04	0.988	0.937	0.748	0.388	–	0.586	0.481	0.136	0.69	0.687	0.764	–	0.352	0.222	–	0.119	0.0976	0.0789
HCC-827	1.03	1.1	0.948	1.13	1.11	–	0.919	0.942	0.944	0.856	0.934	0.975	1.02	0.97	0.974	1.03	0.993	0.958	0.298	0.66
HOP-62	1.14	1.13	0.971	0.946	0.466	1.04	1.07	0.951	0.835	0.724	1.15	0.966	0.87	0.814	–	0.576	–	0.709	0.546	0.256
IA-LM	1.07	1.11	1.24	0.964	0.292	0.678	0.889	0.91	–	0.127	0.385	0.563	0.562	0.393	0.166	0.349	0.317	0.243	0.0957	0.08
LC-2-ad	0.866	0.976	0.995	0.785	0.607	0.442	0.446	0.462	0.444	0.303	0.905	0.923	0.836	0.692	0.452	0.655	0.419	0.485	0.214	0.142
LCLC-97TM1	0.934	0.95	0.959	1.01	1	0.321	0.569	0.558	0.456	0.333	0.168	0.218	0.176	0.199	0.232	0.174	–	0.175	0.199	0.105
LCLC-103H	0.842	0.919	0.692	0.857	0.554	0.973	1.07	1.14	1.07	0.761	1.05	1.03	1.12	1.19	0.857	0.57	0.541	0.591	0.574	0.451
LK-2	–	1.05	1.01	0.554	0.389	0.232	0.244	0.201	0.226	0.262	0.524	0.52	0.498	0.365	0.445	0.621	–	0.696	0.64	0.541
LOU-NH91	–	0.966	0.863	1.02	0.843	0.749	0.741	0.728	0.725	0.67	0.946	0.979	0.909	0.914	0.751	0.532	–	0.539	0.478	0.484
LU99A	0.768	–	0.761	0.854	0.597	0.476	0.484	0.687	0.626	0.367	0.451	0.566	0.545	0.531	0.459	0.375	–	0.346	0.326	0.247
NCI-H1395	1.03	0.974	1.05	0.925	0.8	–	–	–	–	–	0.792	1.09	1.35	1.01	1.08	0.638	–	0.735	0.567	0.346
NCI-H1623	0.986	0.816	0.789	0.857	0.667	–	–	–	–	–	–	–	–	–	–	–	–	–	–	–
NCI-H1650	1.12	1.19	1.17	0.863	0.32	1.01	0.773	1.12	0.715	0.256	–	–	–	–	–	0.671	–	0.659	0.351	0.235
NCI-H1793	–	0.668	0.681	0.783	0.594	–	–	–	–	–	0.78	0.703	1.04	0.976	0.907	0.363	0.266	0.377	0.241	0.235
NCI-H2170	1.04	1.01	0.985	1.02	0.965	1.18	1.01	1.27	1.28	0.966	–	–	–	–	–	0.316	0.306	0.319	0.253	0.22
NCI-H2342	0.993	0.938	1.15	0.971	0.946	–	–	–	–	–	–	–	–	–	–	–	–	–	–	–
SW 900	0.942	0.922	1.58	0.466	0.403	–	–	–	–	–	–	–	–	–	–	–	–	–	–	–
